Reference: the NIST ThermoML archive (doi:10.1016/j.fluid.2015.03.015)

Experiment: refractive index (other wavelength) (dimensionless); xn = mol fraction of the nth substance listed

CCCC(C)O (stereo not drawn) [pentan-2-ol] + CCCCCCCC[n+]1ccn(C)c1.F[B-](F)(F)F
Minimum deviation
Conditions	refractive index
284.59 K, Liquid mixture 1, Wavelength=623.8 nm, x2 = 0.01	1.4096
284.59 K, Liquid mixture 2, Wavelength=623.8 nm, x2 = 0.347	1.4237
285.29 K, Liquid mixture 1, Wavelength=623.8 nm, x2 = 0.01	1.4093
285.29 K, Liquid mixture 2, Wavelength=623.8 nm, x2 = 0.338	1.4232
286.13 K, Liquid mixture 1, Wavelength=623.8 nm, x2 = 0.012	1.4091
286.13 K, Liquid mixture 2, Wavelength=623.8 nm, x2 = 0.332	1.4227
286.89 K, Liquid mixture 1, Wavelength=623.8 nm, x2 = 0.013	1.4088
286.89 K, Liquid mixture 2, Wavelength=623.8 nm, x2 = 0.319	1.422
287.65 K, Liquid mixture 1, Wavelength=623.8 nm, x2 = 0.015	1.4086
287.65 K, Liquid mixture 2, Wavelength=623.8 nm, x2 = 0.315	1.4216
288.25 K, Liquid mixture 1, Wavelength=623.8 nm, x2 = 0.016	1.4084
288.25 K, Liquid mixture 2, Wavelength=623.8 nm, x2 = 0.307	1.4211
288.92 K, Liquid mixture 1, Wavelength=623.8 nm, x2 = 0.016	1.4081
288.92 K, Liquid mixture 2, Wavelength=623.8 nm, x2 = 0.293	1.4204
289.54 K, Liquid mixture 1, Wavelength=623.8 nm, x2 = 0.019	1.408
289.54 K, Liquid mixture 2, Wavelength=623.8 nm, x2 = 0.288	1.42
290.07 K, Liquid mixture 1, Wavelength=623.8 nm, x2 = 0.021	1.4079
290.07 K, Liquid mixture 2, Wavelength=623.8 nm, x2 = 0.279	1.4195
290.61 K, Liquid mixture 1, Wavelength=623.8 nm, x2 = 0.021	1.4077
290.61 K, Liquid mixture 2, Wavelength=623.8 nm, x2 = 0.271	1.419
291.08 K, Liquid mixture 1, Wavelength=623.8 nm, x2 = 0.023	1.4076
291.08 K, Liquid mixture 2, Wavelength=623.8 nm, x2 = 0.264	1.4186
291.55 K, Liquid mixture 1, Wavelength=623.8 nm, x2 = 0.025	1.4075
291.55 K, Liquid mixture 2, Wavelength=623.8 nm, x2 = 0.255	1.4181
292.02 K, Liquid mixture 1, Wavelength=623.8 nm, x2 = 0.027	1.4074
292.02 K, Liquid mixture 2, Wavelength=623.8 nm, x2 = 0.247	1.4176
292.46 K, Liquid mixture 1, Wavelength=623.8 nm, x2 = 0.03	1.4074
292.46 K, Liquid mixture 2, Wavelength=623.8 nm, x2 = 0.235	1.417
292.84 K, Liquid mixture 1, Wavelength=623.8 nm, x2 = 0.031	1.4073
292.84 K, Liquid mixture 2, Wavelength=623.8 nm, x2 = 0.229	1.4166
293.15 K, Liquid mixture 1, Wavelength=623.8 nm, x2 = 0.035	1.4074
293.15 K, Liquid mixture 2, Wavelength=623.8 nm, x2 = 0.221	1.4162
293.41 K, Liquid mixture 1, Wavelength=623.8 nm, x2 = 0.037	1.4074
293.41 K, Liquid mixture 2, Wavelength=623.8 nm, x2 = 0.211	1.4157
293.63 K, Liquid mixture 1, Wavelength=623.8 nm, x2 = 0.04	1.4075
293.63 K, Liquid mixture 2, Wavelength=623.8 nm, x2 = 0.206	1.4154
293.78 K, Liquid mixture 1, Wavelength=623.8 nm, x2 = 0.041	1.4075
293.78 K, Liquid mixture 2, Wavelength=623.8 nm, x2 = 0.202	1.4152
293.89 K, Liquid mixture 1, Wavelength=623.8 nm, x2 = 0.044	1.4076
293.89 K, Liquid mixture 2, Wavelength=623.8 nm, x2 = 0.201	1.4151
293.99 K, Liquid mixture 1, Wavelength=623.8 nm, x2 = 0.045	1.4076
293.99 K, Liquid mixture 2, Wavelength=623.8 nm, x2 = 0.197	1.4149
294.09 K, Liquid mixture 1, Wavelength=623.8 nm, x2 = 0.047	1.4077
294.09 K, Liquid mixture 2, Wavelength=623.8 nm, x2 = 0.193	1.4147
294.19 K, Liquid mixture 1, Wavelength=623.8 nm, x2 = 0.048	1.4077
294.19 K, Liquid mixture 2, Wavelength=623.8 nm, x2 = 0.189	1.4145
294.27 K, Liquid mixture 1, Wavelength=623.8 nm, x2 = 0.05	1.4078
294.27 K, Liquid mixture 2, Wavelength=623.8 nm, x2 = 0.188	1.4144
294.35 K, Liquid mixture 1, Wavelength=623.8 nm, x2 = 0.053	1.4079
294.35 K, Liquid mixture 2, Wavelength=623.8 nm, x2 = 0.184	1.4142
294.42 K, Liquid mixture 1, Wavelength=623.8 nm, x2 = 0.054	1.4079
294.42 K, Liquid mixture 2, Wavelength=623.8 nm, x2 = 0.18	1.414
294.49 K, Liquid mixture 1, Wavelength=623.8 nm, x2 = 0.056	1.408
294.49 K, Liquid mixture 2, Wavelength=623.8 nm, x2 = 0.175	1.4138
294.54 K, Liquid mixture 1, Wavelength=623.8 nm, x2 = 0.058	1.4081
294.54 K, Liquid mixture 2, Wavelength=623.8 nm, x2 = 0.174	1.4137
294.6 K, Liquid mixture 1, Wavelength=623.8 nm, x2 = 0.06	1.4082
294.6 K, Liquid mixture 2, Wavelength=623.8 nm, x2 = 0.172	1.4136
294.64 K, Liquid mixture 1, Wavelength=623.8 nm, x2 = 0.063	1.4083
294.64 K, Liquid mixture 2, Wavelength=623.8 nm, x2 = 0.168	1.4134
294.68 K, Liquid mixture 1, Wavelength=623.8 nm, x2 = 0.065	1.4084
294.68 K, Liquid mixture 2, Wavelength=623.8 nm, x2 = 0.166	1.4133
294.73 K, Liquid mixture 1, Wavelength=623.8 nm, x2 = 0.067	1.4085
294.73 K, Liquid mixture 2, Wavelength=623.8 nm, x2 = 0.162	1.4131
294.77 K, Liquid mixture 1, Wavelength=623.8 nm, x2 = 0.069	1.4086
294.77 K, Liquid mixture 2, Wavelength=623.8 nm, x2 = 0.157	1.4129
294.8 K, Liquid mixture 1, Wavelength=623.8 nm, x2 = 0.071	1.4087
294.8 K, Liquid mixture 2, Wavelength=623.8 nm, x2 = 0.153	1.4127
294.83 K, Liquid mixture 1, Wavelength=623.8 nm, x2 = 0.073	1.4088
294.83 K, Liquid mixture 2, Wavelength=623.8 nm, x2 = 0.149	1.4125
294.87 K, Liquid mixture 1, Wavelength=623.8 nm, x2 = 0.077	1.409
294.87 K, Liquid mixture 2, Wavelength=623.8 nm, x2 = 0.145	1.4123
294.88 K, Liquid mixture 1, Wavelength=623.8 nm, x2 = 0.079	1.4091
294.88 K, Liquid mixture 2, Wavelength=623.8 nm, x2 = 0.143	1.4122
294.89 K, Liquid mixture 1, Wavelength=623.8 nm, x2 = 0.083	1.4093
294.89 K, Liquid mixture 2, Wavelength=623.8 nm, x2 = 0.141	1.4121
294.9 K, Liquid mixture 1, Wavelength=623.8 nm, x2 = 0.085	1.4094
294.9 K, Liquid mixture 2, Wavelength=623.8 nm, x2 = 0.139	1.412
294.91 K, Liquid mixture 1, Wavelength=623.8 nm, x2 = 0.085	1.4094
294.91 K, Liquid mixture 1, Wavelength=623.8 nm, x2 = 0.087	1.4095
294.91 K, Liquid mixture 2, Wavelength=623.8 nm, x2 = 0.132	1.4117
294.91 K, Liquid mixture 2, Wavelength=623.8 nm, x2 = 0.134	1.4118
294.92 K, Liquid mixture 1, Wavelength=623.8 nm, x2 = 0.088	1.4095
294.92 K, Liquid mixture 1, Wavelength=623.8 nm, x2 = 0.09	1.4096
294.92 K, Liquid mixture 2, Wavelength=623.8 nm, x2 = 0.128	1.4115
294.92 K, Liquid mixture 2, Wavelength=623.8 nm, x2 = 0.13	1.4116
294.93 K, Liquid mixture 1, Wavelength=623.8 nm, x2 = 0.091	1.4097
294.93 K, Liquid mixture 1, Wavelength=623.8 nm, x2 = 0.093	1.4098
294.93 K, Liquid mixture 1, Wavelength=623.8 nm, x2 = 0.097	1.41
294.93 K, Liquid mixture 1, Wavelength=623.8 nm, x2 = 0.099	1.4101
294.93 K, Liquid mixture 2, Wavelength=623.8 nm, x2 = 0.118	1.411
294.93 K, Liquid mixture 2, Wavelength=623.8 nm, x2 = 0.122	1.4112
294.93 K, Liquid mixture 2, Wavelength=623.8 nm, x2 = 0.124	1.4113
294.93 K, Liquid mixture 2, Wavelength=623.8 nm, x2 = 0.126	1.4114

85 kPa, Liquid, Wavelength=632.8 nm, Minimum Deviation
Conditions	refractive index
288.19 K, x2 = 0.599	1.4284
288.8 K, x2 = 0.899	1.4331
288.81 K, x2 = 0.798	1.4316
288.98 K, x2 = 0.7	1.4298
289.74 K, x2 = 0.599	1.428
290.84 K, x2 = 0.798	1.4311
290.84 K, x2 = 0.899	1.4326
290.99 K, x2 = 0.7	1.4293
291.3 K, x2 = 0.599	1.4275
292.85 K, x2 = 0.599	1.427
292.89 K, x2 = 0.899	1.432
292.91 K, x2 = 0.798	1.4305
293.05 K, x2 = 0.7	1.4287
293.9 K, x2 = 0.4	1.422
294.42 K, x2 = 0.599	1.4265
294.98 K, x2 = 0.798	1.4299
294.98 K, x2 = 0.899	1.4314
295.13 K, x2 = 0.7	1.4281
295.53 K, x2 = 0.099	1.4101
295.95 K, x2 = 0.4	1.4213
296.02 K, x2 = 0.3	1.4182
296.02 K, x2 = 0.599	1.426
296.13 K, x2 = 0.5	1.4238
297.03 K, x2 = 0.798	1.4293
297.03 K, x2 = 0.899	1.4308
297.19 K, x2 = 0.7	1.4275
297.57 K, x2 = 0.3	1.4177
297.68 K, x2 = 0.5	1.4233
297.86 K, x2 = 0.099	1.4092
298.01 K, x2 = 0.4	1.4207
299.09 K, x2 = 0.3	1.4172
299.11 K, x2 = 0.798	1.4287
299.11 K, x2 = 0.899	1.4303
299.22 K, x2 = 0.2	1.4133
299.22 K, x2 = 0.7	1.4269
299.24 K, x2 = 0.5	1.4229
299.91 K, x2 = 0.099	1.4085
300.06 K, x2 = 0.4	1.4201
300.66 K, x2 = 0.3	1.4167
300.8 K, x2 = 0.2	1.4128
300.8 K, x2 = 0.5	1.4224
302 K, x2 = 0.099	1.4077
302.14 K, x2 = 0.4	1.4194
302.24 K, x2 = 0.3	1.4162
302.34 K, x2 = 0.5	1.4219
302.35 K, x2 = 0.2	1.4122
303.8 K, x2 = 0.3	1.4156
303.88 K, x2 = 0.2	1.4117
304.07 K, x2 = 0.099	1.4069
304.17 K, x2 = 0.4	1.4187
304.17 K, x2 = 0.5	1.4213
305.44 K, x2 = 0.2	1.4111
306.2 K, x2 = 0.099	1.4061
307.01 K, x2 = 0.2	1.4105
